# In patent publication US20100292231A1, “Indazole Compounds for Treating Inflammatory Disorders, Demyelinating Disorders and Cancers” (priority 2007, published 2010):
# Numbering of substitutions follows the chain as printed.
# Key:
# Assay in all cases: MTS cellular proliferation assay
# Format in all cases: cell-based
# BaF3-D835Y = target: T1, BaF3-D835Y (Homo sapiens, UniProt P36888, D835Y, cells depend on it); conditions: 72 hour incubation, read-out: Growth inhibitory activity (in vivo EC50 nM)
# T1 sequence (P36888 1-993 D835Y): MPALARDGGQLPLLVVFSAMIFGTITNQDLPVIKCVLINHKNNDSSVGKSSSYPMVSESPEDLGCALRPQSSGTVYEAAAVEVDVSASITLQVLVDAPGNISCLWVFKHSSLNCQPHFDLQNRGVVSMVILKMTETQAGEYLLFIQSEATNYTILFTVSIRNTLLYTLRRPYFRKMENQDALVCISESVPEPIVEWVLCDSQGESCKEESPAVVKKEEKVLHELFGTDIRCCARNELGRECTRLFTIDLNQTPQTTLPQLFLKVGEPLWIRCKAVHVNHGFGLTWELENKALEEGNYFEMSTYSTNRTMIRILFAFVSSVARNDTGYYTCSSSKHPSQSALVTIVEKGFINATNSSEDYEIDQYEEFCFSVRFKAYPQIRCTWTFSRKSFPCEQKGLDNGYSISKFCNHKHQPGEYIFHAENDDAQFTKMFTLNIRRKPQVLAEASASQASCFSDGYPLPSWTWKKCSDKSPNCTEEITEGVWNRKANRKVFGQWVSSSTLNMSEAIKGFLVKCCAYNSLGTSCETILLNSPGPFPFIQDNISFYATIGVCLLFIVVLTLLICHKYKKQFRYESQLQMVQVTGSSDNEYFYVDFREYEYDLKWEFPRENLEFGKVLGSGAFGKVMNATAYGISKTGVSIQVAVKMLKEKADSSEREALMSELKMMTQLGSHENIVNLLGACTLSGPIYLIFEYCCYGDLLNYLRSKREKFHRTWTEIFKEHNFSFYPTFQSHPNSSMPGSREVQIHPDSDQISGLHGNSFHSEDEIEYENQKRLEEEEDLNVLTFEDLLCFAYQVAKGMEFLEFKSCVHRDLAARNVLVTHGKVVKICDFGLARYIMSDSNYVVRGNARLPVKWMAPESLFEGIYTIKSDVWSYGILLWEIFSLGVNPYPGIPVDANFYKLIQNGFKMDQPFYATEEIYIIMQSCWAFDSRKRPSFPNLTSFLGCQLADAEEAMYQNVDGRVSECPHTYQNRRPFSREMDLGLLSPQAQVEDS
# Source text: (§1) The viability of Flt3 expressing cells can be evaluated using a tetrazolium salt reduction cell-based assay. […] BaF3, both wild type and mutant, as well as transfected strains, MV4-11 and MOLM14 are well-characterized Flt3-dependent humanized or human cell lines which express active Flt3 receptors (see, Yee et al. Blood (2002)100 (8):2941-2949; Levis et al. (2002) 99(11): 3885-3891). These cell lines were used to determine the ability of the compounds provided herein to inhibit Flt3 in intact cells. In each case, and by methods known to those practiced in the art of cell culture, proliferation was measured after 72 hour incubation with the compounds provided herein using a standard MTS protocol (Promega Cat #5430 “Cell Titer 96 Aqueous Non-radioactive Cell Proliferation Assay”).
# (§2) In general, cells were plated at 10,000-20,000 cells per well in DMEM medium with 0.5% serum. The compound plate was set up by aliquoting into column 1 of a 96 well 300 ul polypropylene plate, the negative control (DMSO), aliquoting into column 12 the positive control and titrating the test compound in serial dilutions into columns 2-1 l. An aliquot from each well of the compound plate was transferred to the plated cells and then incubated @ […] in 5% CO2. [00538] MTS tetrazolium compound (Owen's reagent) was thawed in a H2O bath. 20 μl of MTS tetrazolium was added to each well of optical plate and the cells were incubated @ 37° C. in 5% CO2 for 2 hours. The absorbance measured at 490 nm using a microplate reader.
# BaF3-FLT3-WT + IL-3 = conditions: 72 hour incubation, read-out: Growth inhibitory activity (in vivo EC50 nM)
# Source text: as §1, §2
# BaF3-ITD = target: T2, BaF3-ITD (Homo sapiens, UniProt P36888, cells depend on it, form not given); conditions: 72 hour incubation, read-out: Growth inhibitory activity (in vivo EC50 nM)
# T2 sequence (P36888 1-993): T1 sequence (P36888 1-993 D835Y) with Y835D
# Source text: as §1, §2
# MOLM14 = conditions: Homo sapiens, MOLM-14, 72 hour incubation, read-out: Growth inhibitory activity (in vivo EC50 nM)
# Source text: as §1, §2
EC50 (BaF3-D835Y),IC50 (BaF3-FLT3-WT + IL-3),EC50 (BaF3-ITD),EC50 (MOLM14),SMILES
158 nM,356 nM,36 nM,60 nM,CNc1ccc2ncn3c4ccc5[nH]ncc5c4c(=O)c1c23 [(VII)]
129 nM,341 nM,30 nM,627 nM,CCN(CC)CCNc1ccc2ncn3c4ccc5[nH]ncc5c4c(=O)c1c23 [(VIII)]
79 nM,492 nM,35 nM,90 nM,O=c1c2c(NCCCN3CCOCC3)ccc3ncn(c4ccc5[nH]ncc5c14)c32 [(X)]
13 nM,6 nM,20 nM,–,CN(C)CCCNc1ccc2ncn3c4ccc5[nH]ncc5c4c(=O)c1c23 [Compound (IV)]
172 nM,246 nM,90 nM,333 nM,O=c1c2c(NCCN3CCOCC3)ccc3ncn(c4ccc5[nH]ncc5c14)c32 [Compound (V)]

# The next lines start with the compound.
SMILES,EC50 (BaF3-D835Y),IC50 (BaF3-FLT3-WT + IL-3),EC50 (BaF3-ITD),EC50 (MOLM14)
CN(C)CCCCCNc1ccc2ncn3c4ccc5[nH]ncc5c4c(=O)c1c23 [(III)],887 nM,752 nM,223 nM,–
CN(C)c1ccc2ncn3c4ccc5[nH]ncc5c4c(=O)c1c23 [(IX)],723 nM,> 2000 nM,80 nM,82 nM
CCN(CC)c1ccc2ncn3c4ccc5[nH]ncc5c4c(=O)c1c23 [(VI)],171 nM,1390 nM,74 nM,84 nM
"CCN(CC)CCNc1ccc2ncn3c4ccc(O)cc4c(=O)c1c23 [Symadex, 5-(2-(diethylamino)ethylamino)-8-hydroxy-6H-imidazo[4,5,1-de]acridin-6-one, reference compound]",8.9 nM,13.2 nM,11.2 nM,–
